Laboratory results: ChEMBL document CHEMBL3885861, “Open TG-GATES”

Species: Rattus norvegicus
Assay: Open TG-GATES - Regimen: Daily Repeat
Type: toxicity, organism-based, Sprague-Dawley
Parameters: regimen Daily Repeat, gender Male, age 6 weeks
Conditions: in vivo, po, 6 mg/kg, route gavage, dose level High; for APTT / Bas / Eos / Fbg / Hb / Ht / Lym / MCH / MCHC / MCV / Mono / Neu / PT / Plat / RBC / Ret / WBC: tissue Blood; for KIDNEY_L / KIDNEY_R / KIDNEY_TOTAL: tissue Kidney; for LIVER: tissue Liver; for A/G / ALP / ALT / AST / BUN / CRE / Ca / Cl / DBIL / GLC / IP / K / LDH / Na / PL / RALB / TBIL / TC / TG / TP / gamma-GTP: tissue Plasma

With `O=NN(CCCl)C(=O)NC1CCCCC1` [LOMUSTINE] the TERMINAL_BW (72 h, time 3 day) was 213.1 g, the APTT (72 h, time 3 day) was 16.1 s and the Bas (72 h, time 3 day) was 0%. The Eos (72 h, time 3 day) was 0.6%, the Fbg (72 h, time 3 day) was 212.8 mg/dL and the Hb (72 h, time 3 day) was 13 g/dL. For the same compound, the Ht (72 h, time 3 day) was 38.9%, the Lym (72 h, time 3 day) was 86% and the MCH (72 h, time 3 day) was 21.3 pg. For the same compound, the MCHC (72 h, time 3 day) was 33.3%, the MCV (72 h, time 3 day) was 64.1 fL and the Mono (72 h, time 3 day) was 5.6%. It also gave a Neu (72 h, time 3 day) of 8%, a PT (72 h, time 3 day) of 11.9 s and a Plat (72 h, time 3 day) of 114.8 x10_4/uL. For the same compound, the RBC (72 h, time 3 day) was 607.2 x10_4/ul, the Ret (72 h, time 3 day) was 6.1% and the WBC (72 h, time 3 day) was 100.8 x10_2/uL. The KIDNEY_L (72 h, time 3 day) was 1 g, the KIDNEY_R (72 h, time 3 day) was 1 g and the KIDNEY_TOTAL (72 h, time 3 day) was 2 g. For the same compound, the LIVER (72 h, time 3 day) was 10.2 g, the A/G (72 h, time 3 day) was 2.2 and the ALP (72 h, time 3 day) was 1003.2 IU/L. It also gave an ALT (72 h, time 3 day) of 30.4 IU/L, an AST (72 h, time 3 day) of 65 IU/L and a BUN (72 h, time 3 day) of 15.6 mg/dL. It also gave a CRE (72 h, time 3 day) of 0.5 mg/dL, a Ca (72 h, time 3 day) of 10.8 mg/dL and a Cl (72 h, time 3 day) of 104.8 meq/L. For the same compound, the DBIL (72 h, time 3 day) was 0.028 mg/dL, the GLC (72 h, time 3 day) was 179 mg/dL and the IP (72 h, time 3 day) was 9 mg/dL. It also gave a K (72 h, time 3 day) of 4.7 meq/L, an LDH (72 h, time 3 day) of 105.4 IU/L and a Na (72 h, time 3 day) of 139 meq/L. It also gave a PL (72 h, time 3 day) of 136.6 mg/dL, an RALB (72 h, time 3 day) of 3.9 g/dL and a TBIL (72 h, time 3 day) of 0.3 mg/dL. The TC (72 h, time 3 day) was 75.6 mg/dL, the TG (72 h, time 3 day) was 56.4 mg/dL and the TP (72 h, time 3 day) was 5.8 g/dL. The gamma-GTP (72 h, time 3 day) was 1.8 IU/L, the TERMINAL_BW ([…], time 7 day) was 225.8 g and the TERMINAL_BW ([…], time 14 day) was 229.7 g. The TERMINAL_BW ([…], time 28 day) was 202.6 g, the APTT ([…], time 7 day) was 15.7 s and the Bas ([…], time 7 day) was 0%. For the same compound, the Eos ([…], time 7 day) was 0.4%, the Fbg ([…], time 7 day) was 237.4 mg/dL and the Hb ([…], time 7 day) was 14.3 g/dL. It also gave a Ht ([…], time 7 day) of 43.1%, a Lym ([…], time 7 day) of 80.6% and an MCH ([…], time 7 day) of 20.9 pg. It also gave an MCHC ([…], time 7 day) of 33.3%, an MCV ([…], time 7 day) of 62.9 fL and a Mono ([…], time 7 day) of 8.8%. It also gave a Neu ([…], time 7 day) of 10.2%, a PT ([…], time 7 day) of 11.7 s and a Plat ([…], time 7 day) of 124 x10_4/uL. It also gave an RBC ([…], time 7 day) of 686.4 x10_4/ul, a Ret ([…], time 7 day) of 3.4% and a WBC ([…], time 7 day) of 73.5 x10_2/uL. The APTT ([…], time 14 day) was 15.8 s, the Bas ([…], time 14 day) was 0% and the Eos ([…], time 14 day) was 0.6%. The Fbg ([…], time 14 day) was 237.4 mg/dL, the Hb ([…], time 14 day) was 15.1 g/dL and the Ht ([…], time 14 day) was 44.8%. It also gave a Lym ([…], time 14 day) of 75.4%, an MCH ([…], time 14 day) of 20.1 pg and an MCHC ([…], time 14 day) of 33.7%. It also gave an MCV ([…], time 14 day) of 59.8 fL, a Mono ([…], time 14 day) of 14.4% and a Neu ([…], time 14 day) of 9.6%. It also gave a PT ([…], time 14 day) of 11.2 s, a Plat ([…], time 14 day) of 133.2 x10_4/uL and an RBC ([…], time 14 day) of 750 x10_4/ul. For the same compound, the Ret ([…], time 14 day) was 1.2%, the WBC ([…], time 14 day) was 75.3 x10_2/uL and the APTT ([…], time 28 day) was 15.2 s. For the same compound, the Bas ([…], time 28 day) was 0%, the Eos ([…], time 28 day) was 0.8% and the Fbg ([…], time 28 day) was 255.7 mg/dL. The Hb ([…], time 28 day) was 15.6 g/dL, the Ht ([…], time 28 day) was 45.3% and the Lym ([…], time 28 day) was 58.5%. The MCH ([…], time 28 day) was 18.9 pg, the MCHC ([…], time 28 day) was 34.5% and the MCV ([…], time 28 day) was 54.6 fL. For the same compound, the Mono ([…], time 28 day) was 22.5%, the Neu ([…], time 28 day) was 18.8% and the PT ([…], time 28 day) was 11.6 s. For the same compound, the Plat ([…], time 28 day) was 121.1 x10_4/uL, the RBC ([…], time 28 day) was 832.2 x10_4/ul and the Ret ([…], time 28 day) was 2.5%. For the same compound, the WBC ([…], time 28 day) was 114.2 x10_2/uL, the KIDNEY_L ([…], time 7 day) was 1 g and the KIDNEY_R ([…], time 7 day) was 1 g. It also gave a KIDNEY_TOTAL ([…], time 7 day) of 2.1 g, a KIDNEY_L ([…], time 14 day) of 1.1 g and a KIDNEY_R ([…], time 14 day) of 1.1 g. It also gave a KIDNEY_TOTAL ([…], time 14 day) of 2.1 g, a KIDNEY_L ([…], time 28 day) of 1.4 g and a KIDNEY_R ([…], time 28 day) of 1.3 g. It also gave a KIDNEY_TOTAL ([…], time 28 day) of 2.7 g, an LIVER ([…], time 7 day) of 10.6 g and an LIVER ([…], time 14 day) of 10.5 g. It also gave an LIVER ([…], time 28 day) of 9.5 g, an A/G ([…], time 7 day) of 1.7 and an ALP ([…], time 7 day) of 656.6 IU/L. For the same compound, the ALT ([…], time 7 day) was 48.4 IU/L, the AST ([…], time 7 day) was 97 IU/L and the BUN ([…], time 7 day) was 16.6 mg/dL. The CRE ([…], time 7 day) was 0.5 mg/dL, the Ca ([…], time 7 day) was 11.2 mg/dL and the Cl ([…], time 7 day) was 105.6 meq/L. For the same compound, the DBIL ([…], time 7 day) was 0.03 mg/dL, the GLC ([…], time 7 day) was 170.4 mg/dL and the IP ([…], time 7 day) was 7.3 mg/dL. The K ([…], time 7 day) was 4.7 meq/L, the LDH ([…], time 7 day) was 139.6 IU/L and the Na ([…], time 7 day) was 139.2 meq/L. The PL ([…], time 7 day) was 156 mg/dL, the RALB ([…], time 7 day) was 3.8 g/dL and the TBIL ([…], time 7 day) was 0.3 mg/dL. For the same compound, the TC ([…], time 7 day) was 98.4 mg/dL, the TG ([…], time 7 day) was 55.8 mg/dL and the TP ([…], time 7 day) was 6.1 g/dL. It also gave a gamma-GTP ([…], time 7 day) of 2.6 IU/L, an A/G ([…], time 14 day) of 1.6 and an ALP ([…], time 14 day) of 694.4 IU/L. The ALT ([…], time 14 day) was 101.6 IU/L, the AST ([…], time 14 day) was 223.6 IU/L and the BUN ([…], time 14 day) was 23.4 mg/dL. For the same compound, the CRE ([…], time 14 day) was 0.6 mg/dL, the Ca ([…], time 14 day) was 11.3 mg/dL and the Cl ([…], time 14 day) was 105.8 meq/L. The DBIL ([…], time 14 day) was 0.3 mg/dL, the GLC ([…], time 14 day) was 159.8 mg/dL and the IP ([…], time 14 day) was 6.4 mg/dL. The K ([…], time 14 day) was 4.7 meq/L, the LDH ([…], time 14 day) was 210.6 IU/L and the Na ([…], time 14 day) was 139.6 meq/L. For the same compound, the PL ([…], time 14 day) was 236.8 mg/dL, the RALB ([…], time 14 day) was 3.8 g/dL and the TBIL ([…], time 14 day) was 0.4 mg/dL. For the same compound, the TC ([…], time 14 day) was 159.8 mg/dL, the TG ([…], time 14 day) was 48.2 mg/dL and the TP ([…], time 14 day) was 6.2 g/dL. It also gave a gamma-GTP ([…], time 14 day) of 4.6 IU/L, an A/G ([…], time 28 day) of 1.3 and an ALP ([…], time 28 day) of 520.8 IU/L. It also gave an ALT ([…], time 28 day) of 153.2 IU/L, an AST ([…], time 28 day) of 484.2 IU/L and a BUN ([…], time 28 day) of 31.2 mg/dL. It also gave a CRE ([…], time 28 day) of 0.2 mg/dL, a Ca ([…], time 28 day) of 11.3 mg/dL and a Cl ([…], time 28 day) of 106.2 meq/L. The DBIL ([…], time 28 day) was 3.9 mg/dL, the GLC ([…], time 28 day) was 137 mg/dL and the IP ([…], time 28 day) was 5.9 mg/dL. For the same compound, the K ([…], time 28 day) was 4.8 meq/L, the LDH ([…], time 28 day) was 298.8 IU/L and the Na ([…], time 28 day) was 142.2 meq/L. It also gave a PL ([…], time 28 day) of 301 mg/dL, an RALB ([…], time 28 day) of 3.5 g/dL and a TBIL ([…], time 28 day) of 3.3 mg/dL. For the same compound, the TC ([…], time 28 day) was 207.2 mg/dL, the TG ([…], time 28 day) was 118 mg/dL and the TP ([…], time 28 day) was 6.1 g/dL. It also gave a gamma-GTP ([…], time 28 day) of 11.8 IU/L.
